Test results: ChEMBL document CHEMBL4507326, “Data for DCP probe TP-030-2” (2021)
The source made the active and inactive calls. The rule behind the calls is not given here.

How the values were obtained:
[1] = target: GABA-A receptor; anion channel (Rattus norvegicus) (UniProt O09028+P15431+P18506+P18508+P19969+P20236+P23574+P23576+P28471+P28473+P30191+P62813+P63079+P63138+Q91ZM7+Q9ES14); test: Inhibition of GABAA, Muscimol, Central at 10 µM in the Eurofins-Panlabs radioligand binding assay (Eurofins_assay_226500); type: protein-complex assay; details: Compound concentration 10.0 uM
[2] = target: Receptor-interacting serine/threonine-protein kinase 1 (Mus musculus, UniProt Q60855); test: TR-FRET (mouse RIPK1)
[3] = target: Tyrosine-protein kinase Lck (Homo sapiens, UniProt P06239); test: Lck(LCK1LGF1) Takeda global kinase panel
[4] = target: Serine/threonine-protein kinase PLK4 (Homo sapiens, UniProt O00444); test: PLK4(PLK4LGF1) Takeda global kinase panel
[5] = target: Cyclin-dependent kinase 18 (Homo sapiens, UniProt Q07002); test: PCTAIRE3(CD18SGS1) Takeda global kinase panel
[6] = target: Tyrosine-protein kinase Fes/Fps (Homo sapiens, UniProt P07332); test: Fes(FES1LHY1) Takeda global kinase panel
[7] = target: Phosphorylase b kinase gamma catalytic chain, skeletal muscle/heart isoform (Homo sapiens, UniProt Q16816); test: PhKgamma1(PHG1LHY1) Takeda global kinase panel
[8] = target: Melatonin receptor type 1A (Homo sapiens) (UniProt P48039); test: Inhibition of Melatonin MT1 at 10 µM in the Eurofins-Panlabs radioligand binding assay (Eurofins_assay_251600); parameters: ligand concentration 0.05 nM; details: Compound concentration 10.0 uM
Rattus norvegicus = species on record: Rattus norvegicus; details: Compound concentration 10.0 uM
[9] = target: Dual specificity tyrosine-phosphorylation-regulated kinase 2 (Homo sapiens, UniProt Q92630); test: DYRK2(DYR2LGY1) Takeda global kinase panel
[10] = target: Serine/threonine-protein kinase Chk2 (Homo sapiens, UniProt O96017); test: CHK2(CHE2LGY1) Takeda global kinase panel
[11] = target: D(3) dopamine receptor (Homo sapiens) (UniProt P35462); details: Compound concentration 10.0 uM
[12] = target: Serine/threonine-protein kinase MRCK alpha (Homo sapiens, UniProt Q5VT25); test: MRCKalpha(CD4ALGY1) Takeda global kinase panel
[13] = target: Death-associated protein kinase 1 (Homo sapiens, UniProt P53355); test: DAPK1(DAP1LGF1) Takeda global kinase panel
[14] = target: Calcium/calmodulin-dependent protein kinase type 1G (Homo sapiens, UniProt Q96NX5); test: CaMK1gamma(CA1GLGN1) Takeda global kinase panel
[15] = target: Protein-tyrosine kinase 2-beta (Homo sapiens, UniProt Q14289); test: PYK2(PT2BLHF1) Takeda global kinase panel
[16] = target: Muscarinic acetylcholine receptor M3 (Homo sapiens) (UniProt P20309); details: Compound concentration 10.0 uM
[17] = target: Serine/threonine-protein kinase N2 (Homo sapiens, UniProt Q16513); test: PKN2 [PRK2(PKN2LGG5)] Takeda global kinase panel
[18] = target: Mitogen-activated protein kinase kinase kinase kinase 4 (Homo sapiens, UniProt O95819); test: HGK [ZC1(M4K4CGP1)] Takeda global kinase panel
[19] = target: Microtubule-associated serine/threonine-protein kinase 3 (Homo sapiens, UniProt O60307); test: MAST3(MAS3LGE1) Takeda global kinase panel
[20] = target: Mitogen-activated protein kinase 11 (Homo sapiens, UniProt Q15759); test: p38beta(MP11LGI1) Takeda global kinase panel
[21] = target: Neuropeptide Y receptor type 1 (Homo sapiens) (UniProt P25929); test: Inhibition of Neuropeptide Y Y1 at 10 µM in the Eurofins-Panlabs radioligand binding assay (Eurofins_assay_257010); details: Compound concentration 10.0 uM
[22] = target: Cyclin-dependent kinase 9 (Homo sapiens, UniProt P50750); test: CDK9(CDK9CGS1) Takeda global kinase panel
[23] = target: Cysteinyl leukotriene receptor 1 (Homo sapiens) (UniProt Q9Y271); test: Inhibition of Leukotriene, Cysteinyl CysLT1 at 10 µM in the Eurofins-Panlabs radioligand binding assay (Eurofins_assay_250460); parameters: ligand concentration 0.3 nM, non-specific ligand with concentration 0.3 µM Leukotriene D4, incubation time 30 min, incubation temperature 25 °C; details: Compound concentration 10.0 uM
[24] = target: Sigma intracellular receptor 2 (Homo sapiens, UniProt Q5BJF2); test: GPCRScan assay: inhibition of Sigma 2; parameters: radioligand conc. used [nm] 5.0, parental cells HEKT
[25] = target: Serine/threonine-protein kinase ICK (Homo sapiens, UniProt Q9UPZ9); test: ICK(ICK1LGP1) Takeda global kinase panel
[26] = target: Serine/threonine-protein kinase TAO2 (Homo sapiens, UniProt Q9UL54); test: TAO2(TAO2LGF1) Takeda global kinase panel
[27] = target: Mitogen-activated protein kinase kinase kinase 9 (Homo sapiens, UniProt P80192); test: MLK1(M3K9LGF1) Takeda global kinase panel
Ephrin type-B receptor 1 = Ephrin type-B receptor 1 (Homo sapiens, UniProt P54762); test: EphB1(EPB1LGY1) Takeda global kinase panel
[28] = target: Mu-type opioid receptor (Homo sapiens) (UniProt P35372); details: Compound concentration 10.0 uM
Activin receptor type-1 = Activin receptor type-1 (Homo sapiens, UniProt Q04771); test: ALK2(ACV1LGF1) Takeda global kinase panel
[29] = target: Mitotic checkpoint serine/threonine-protein kinase BUB1 (Homo sapiens, UniProt O43683); test: Bub1(BUB1LGRL) Takeda global kinase panel
[30] = target: Serine/threonine-protein kinase BRSK1 (Homo sapiens, UniProt Q8TDC3); test: BRSK1(BRS1LGA1) Takeda global kinase panel
[31] = target: Proto-oncogene tyrosine-protein kinase ROS (Homo sapiens, UniProt P08922); test: Ros(ROS1PHY1) Takeda global kinase panel
Ephrin type-A receptor 4 = Ephrin type-A receptor 4 (Homo sapiens, UniProt P54764); test: EphA4(EPA4LGF1) Takeda global kinase panel
[32] = target: Serine/threonine-protein kinase PAK 5 (Homo sapiens, UniProt Q9P286); test: PAK5(PAK7LGF1) Takeda global kinase panel
[33] = target: Hormonally up-regulated neu tumor-associated kinase (Homo sapiens, UniProt P57058); test: HUNK(HUNKLGRN) Takeda global kinase panel
[34] = target: Dual specificity tyrosine-phosphorylation-regulated kinase 1B (Homo sapiens, UniProt Q9Y463); test: DYRK1B(DY1BLHY1) Takeda global kinase panel
[35] = target: Protein kinase C theta type (Homo sapiens, UniProt Q04759); test: PKCtheta(PRKQLGM5) Takeda global kinase panel
[36] = target: Mitogen-activated protein kinase kinase kinase 7 (Homo sapiens, UniProt O43318); test: TAK1(M3K7CHY1) Takeda global kinase panel
Homo sapiens = species on record: Homo sapiens; details: Compound concentration 10.0 uM
[37] = target: G protein-coupled receptor kinase 3 (Homo sapiens, UniProt P35626); test: BARK2 [GRK3(ADR2LGG5)] Takeda global kinase panel
[38] = target: Non-receptor tyrosine-protein kinase TYK2 (Homo sapiens, UniProt P29597); test: Tyk2(TYK2LGF1) Takeda global kinase panel

Sequence of Sigma intracellular receptor 2 (Q5BJF2 whole entry): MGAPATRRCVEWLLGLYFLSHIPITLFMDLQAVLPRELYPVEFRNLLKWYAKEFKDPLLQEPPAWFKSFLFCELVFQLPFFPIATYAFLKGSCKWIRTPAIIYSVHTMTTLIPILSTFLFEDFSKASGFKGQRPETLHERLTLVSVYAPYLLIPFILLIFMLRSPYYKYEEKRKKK
Sequence of Mitogen-activated protein kinase kinase kinase kinase 4 (O95819 whole entry): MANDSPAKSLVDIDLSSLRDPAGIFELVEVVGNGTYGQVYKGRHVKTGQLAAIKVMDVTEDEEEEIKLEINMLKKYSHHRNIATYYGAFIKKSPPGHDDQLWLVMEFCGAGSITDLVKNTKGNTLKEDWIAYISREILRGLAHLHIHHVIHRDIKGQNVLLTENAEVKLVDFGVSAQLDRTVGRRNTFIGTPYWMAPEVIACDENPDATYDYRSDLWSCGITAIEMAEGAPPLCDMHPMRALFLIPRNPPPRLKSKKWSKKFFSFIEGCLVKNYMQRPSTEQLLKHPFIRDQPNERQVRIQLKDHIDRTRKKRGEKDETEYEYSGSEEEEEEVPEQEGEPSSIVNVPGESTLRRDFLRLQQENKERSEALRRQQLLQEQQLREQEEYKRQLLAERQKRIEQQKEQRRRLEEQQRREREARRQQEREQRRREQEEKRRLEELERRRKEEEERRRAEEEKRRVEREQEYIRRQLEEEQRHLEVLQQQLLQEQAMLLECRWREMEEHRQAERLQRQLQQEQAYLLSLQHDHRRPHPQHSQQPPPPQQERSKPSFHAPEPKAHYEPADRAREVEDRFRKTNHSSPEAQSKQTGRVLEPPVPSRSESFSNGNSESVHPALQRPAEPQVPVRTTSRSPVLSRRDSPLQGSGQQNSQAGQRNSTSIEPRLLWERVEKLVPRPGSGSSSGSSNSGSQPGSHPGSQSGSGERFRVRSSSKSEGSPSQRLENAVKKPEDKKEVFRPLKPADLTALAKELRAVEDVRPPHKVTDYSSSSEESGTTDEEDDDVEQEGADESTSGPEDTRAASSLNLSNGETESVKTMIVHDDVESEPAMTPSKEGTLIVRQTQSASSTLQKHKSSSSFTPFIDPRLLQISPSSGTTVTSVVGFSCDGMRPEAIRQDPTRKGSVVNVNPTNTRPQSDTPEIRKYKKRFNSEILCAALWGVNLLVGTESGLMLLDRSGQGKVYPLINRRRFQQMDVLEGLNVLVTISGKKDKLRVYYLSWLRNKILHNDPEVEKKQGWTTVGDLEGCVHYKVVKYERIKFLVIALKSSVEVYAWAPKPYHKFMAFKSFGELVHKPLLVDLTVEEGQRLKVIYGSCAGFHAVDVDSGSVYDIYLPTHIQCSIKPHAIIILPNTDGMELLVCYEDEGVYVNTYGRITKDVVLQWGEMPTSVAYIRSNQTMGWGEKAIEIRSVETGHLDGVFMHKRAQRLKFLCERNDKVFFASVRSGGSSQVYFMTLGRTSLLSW
Sequence of Cysteinyl leukotriene receptor 1 (Homo sapiens) (Q9Y271 whole entry): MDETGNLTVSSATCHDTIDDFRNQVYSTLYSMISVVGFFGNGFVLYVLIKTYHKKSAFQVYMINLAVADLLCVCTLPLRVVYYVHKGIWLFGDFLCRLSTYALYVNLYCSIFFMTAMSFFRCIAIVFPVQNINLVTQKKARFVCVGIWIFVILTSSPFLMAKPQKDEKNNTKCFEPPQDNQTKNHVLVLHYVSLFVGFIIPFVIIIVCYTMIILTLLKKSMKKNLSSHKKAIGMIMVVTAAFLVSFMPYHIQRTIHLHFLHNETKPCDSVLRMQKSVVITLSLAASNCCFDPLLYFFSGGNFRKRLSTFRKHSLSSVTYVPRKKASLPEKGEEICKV
Sequence of Serine/threonine-protein kinase Chk2 (O96017 whole entry): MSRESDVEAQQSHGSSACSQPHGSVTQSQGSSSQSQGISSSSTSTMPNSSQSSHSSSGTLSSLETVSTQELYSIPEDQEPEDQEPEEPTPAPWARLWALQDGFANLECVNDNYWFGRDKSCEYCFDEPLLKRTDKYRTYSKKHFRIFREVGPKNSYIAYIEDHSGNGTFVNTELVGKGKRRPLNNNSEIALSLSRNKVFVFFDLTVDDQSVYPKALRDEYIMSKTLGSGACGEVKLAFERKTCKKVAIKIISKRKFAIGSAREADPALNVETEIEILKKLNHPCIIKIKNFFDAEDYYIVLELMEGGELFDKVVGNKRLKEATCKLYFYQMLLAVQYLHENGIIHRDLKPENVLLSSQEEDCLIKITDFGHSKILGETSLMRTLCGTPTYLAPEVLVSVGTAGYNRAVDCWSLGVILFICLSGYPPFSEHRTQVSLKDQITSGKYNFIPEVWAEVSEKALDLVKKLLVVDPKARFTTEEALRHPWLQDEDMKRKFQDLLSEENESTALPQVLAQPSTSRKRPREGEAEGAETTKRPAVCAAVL
Sequence of Protein-tyrosine kinase 2-beta (Q14289 whole entry): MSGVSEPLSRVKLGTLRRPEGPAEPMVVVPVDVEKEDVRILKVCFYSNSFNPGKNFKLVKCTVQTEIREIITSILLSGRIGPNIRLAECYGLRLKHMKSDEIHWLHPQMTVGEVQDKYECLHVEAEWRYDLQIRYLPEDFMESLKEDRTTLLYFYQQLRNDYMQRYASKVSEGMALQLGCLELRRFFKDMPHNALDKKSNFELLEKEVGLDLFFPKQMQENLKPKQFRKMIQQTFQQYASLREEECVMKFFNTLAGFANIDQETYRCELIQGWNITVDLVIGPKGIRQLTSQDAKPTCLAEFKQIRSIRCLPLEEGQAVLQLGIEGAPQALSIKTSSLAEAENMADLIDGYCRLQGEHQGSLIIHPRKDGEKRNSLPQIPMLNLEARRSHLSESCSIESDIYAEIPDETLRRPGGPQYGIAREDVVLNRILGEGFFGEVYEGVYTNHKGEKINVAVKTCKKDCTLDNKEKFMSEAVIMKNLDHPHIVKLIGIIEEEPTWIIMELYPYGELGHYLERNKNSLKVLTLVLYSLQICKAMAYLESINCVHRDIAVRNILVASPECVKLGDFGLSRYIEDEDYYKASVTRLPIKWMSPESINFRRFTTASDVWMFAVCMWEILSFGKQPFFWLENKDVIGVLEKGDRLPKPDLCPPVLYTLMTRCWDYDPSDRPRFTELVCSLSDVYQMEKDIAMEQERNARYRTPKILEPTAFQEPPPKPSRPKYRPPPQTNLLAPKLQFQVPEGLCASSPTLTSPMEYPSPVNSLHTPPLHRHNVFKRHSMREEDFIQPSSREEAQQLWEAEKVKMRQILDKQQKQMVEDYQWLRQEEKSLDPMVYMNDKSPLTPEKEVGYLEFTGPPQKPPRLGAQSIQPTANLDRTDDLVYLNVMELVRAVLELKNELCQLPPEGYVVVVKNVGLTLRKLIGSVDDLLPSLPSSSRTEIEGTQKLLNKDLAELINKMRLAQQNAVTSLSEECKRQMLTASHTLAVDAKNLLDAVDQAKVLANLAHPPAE
Sequence of Death-associated protein kinase 1 (P53355 whole entry): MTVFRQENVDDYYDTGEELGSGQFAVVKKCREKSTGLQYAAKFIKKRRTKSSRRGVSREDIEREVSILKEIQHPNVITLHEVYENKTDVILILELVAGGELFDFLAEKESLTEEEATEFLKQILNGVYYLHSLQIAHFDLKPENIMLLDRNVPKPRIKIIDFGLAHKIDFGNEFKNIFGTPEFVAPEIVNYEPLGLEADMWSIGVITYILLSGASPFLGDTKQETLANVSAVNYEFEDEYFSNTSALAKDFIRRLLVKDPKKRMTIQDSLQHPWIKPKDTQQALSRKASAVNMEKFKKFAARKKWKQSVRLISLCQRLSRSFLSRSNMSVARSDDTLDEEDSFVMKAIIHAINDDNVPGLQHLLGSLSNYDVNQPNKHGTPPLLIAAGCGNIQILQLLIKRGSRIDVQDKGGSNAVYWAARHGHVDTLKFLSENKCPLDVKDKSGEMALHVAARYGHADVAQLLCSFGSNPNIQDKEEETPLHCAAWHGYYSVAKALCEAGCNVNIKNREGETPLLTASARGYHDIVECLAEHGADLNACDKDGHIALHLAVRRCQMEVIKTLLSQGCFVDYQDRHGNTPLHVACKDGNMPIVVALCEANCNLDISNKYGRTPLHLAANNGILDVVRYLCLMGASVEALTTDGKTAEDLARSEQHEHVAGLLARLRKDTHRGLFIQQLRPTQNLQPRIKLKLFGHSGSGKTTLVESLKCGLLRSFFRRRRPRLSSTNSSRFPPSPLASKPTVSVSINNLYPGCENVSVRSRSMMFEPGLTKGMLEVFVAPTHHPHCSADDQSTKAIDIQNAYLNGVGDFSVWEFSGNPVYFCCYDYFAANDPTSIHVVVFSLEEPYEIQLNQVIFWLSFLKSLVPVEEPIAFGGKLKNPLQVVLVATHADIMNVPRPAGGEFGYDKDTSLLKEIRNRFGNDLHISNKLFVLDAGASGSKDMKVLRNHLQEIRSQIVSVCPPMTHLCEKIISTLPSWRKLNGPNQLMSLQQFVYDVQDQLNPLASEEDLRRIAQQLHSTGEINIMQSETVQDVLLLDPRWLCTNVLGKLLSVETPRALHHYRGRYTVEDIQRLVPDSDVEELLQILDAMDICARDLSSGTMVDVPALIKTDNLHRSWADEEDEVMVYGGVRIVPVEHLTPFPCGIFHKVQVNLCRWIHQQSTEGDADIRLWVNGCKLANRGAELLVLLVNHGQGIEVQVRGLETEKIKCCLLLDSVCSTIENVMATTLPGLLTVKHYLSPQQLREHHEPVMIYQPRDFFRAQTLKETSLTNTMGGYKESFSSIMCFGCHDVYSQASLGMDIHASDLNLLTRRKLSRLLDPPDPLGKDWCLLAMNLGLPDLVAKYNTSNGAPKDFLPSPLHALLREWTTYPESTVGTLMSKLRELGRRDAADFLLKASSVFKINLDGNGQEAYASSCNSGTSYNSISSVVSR

In the case of `CN1C(=O)[C@@H](N2CCc3c(nn(Cc4ccccc4)c3Br)C2=O)COc2ccccc21` [TP-030-2], the inhibition [1] is reported as 7%, the IC50 [2] is reported as 0.1 µM (active) and the IC50 [3] is reported as 1 µM. It also gave an IC50 [4] of 1 µM, an IC50 [5] of 1 µM and an IC50 [6] of 1 µM. It also gave an IC50 [7] of 1 µM, an inhibition [8] of 33% and an inhibition (Rattus norvegicus) of -6%. For the same molecule, the IC50 [9] was 1 µM, the IC50 [10] was 1 µM and the inhibition [11] was 3.31%. For the same molecule, the IC50 [12] was 1 µM, the IC50 [13] was 1 µM and the IC50 [14] was 1 µM. For the same molecule, the IC50 [15] was 1 µM, the inhibition [16] was 1.23% and the IC50 [17] was 1 µM. For the same molecule, the IC50 [18] was 1 µM, the IC50 [19] was 1 µM and the IC50 [20] was 1 µM. For the same molecule, the inhibition [21] was 10%, the IC50 [22] was 1 µM and the inhibition [23] was 5%. The Ki ([24]; read-out: Ki) was 3.48 µM, the Ki ([24]; read-out: pKi (converted)) was 3.24 µM and the IC50 [25] was 1 µM. The IC50 [26] was 1 µM, the IC50 [27] was 1 µM and the IC50 (Ephrin type-B receptor 1) was 1 µM. It also gave an inhibition [28] of 14.6%, an IC50 (Activin receptor type-1) of 1 µM and an IC50 [29] of 1 µM. It also gave an IC50 [30] of 1 µM, an IC50 [31] of 1 µM and an IC50 (Ephrin type-A receptor 4) of 1 µM. The IC50 [32] was 1 µM, the IC50 [33] was 1 µM and the IC50 [34] was 1 µM. The IC50 [35] was 1 µM, the IC50 [36] was 1 µM and the inhibition (Homo sapiens) was 16%. The IC50 [37] was 1 µM and the IC50 [38] was 1 µM.
